Measurements as given in ChEMBL document CHEMBL4814036, “Synthesis and anti-fibrotic effects of santamarin derivatives as cytotoxic agents against hepatic stellate cell line LX2” (Bioorg Med Chem Lett, 2021).
In brackets after ≈: the same amount, converted by molar mass. Activity calls are given as the source filed them. The calls are words filed in the database; no cut-off is given here.

Assays:
LX-2 = test: Cytotoxicity against human LX2 cells assessed as reduction in cell viability at 100 uM by MTT assay; type: functional, cell-based
[1] = Cytotoxicity against human LX2 cells assessed as reduction in cell viability by MTT assay; type: functional, cell-based; details: LX-2
[2] = Inhibition of collagen type 1 deposition in human LX2 cells; type: functional, cell-based; details: lx-2
[3] = Potency index, ratio of STM IC50 to test compound IC50 for inhibition of laminin deposition in human LX2 cells; type: functional, LX-2
[4] = Inhibition of laminin deposition in human LX2 cells; type: functional, cell-based; details: lx-2
[5] = Potency index, ratio of STM IC50 to test compound IC50 for inhibition of hyaluronic acid deposition in human LX2 cells; type: functional, LX-2
[6] = Potency index, ratio of STM IC50 to test compound IC50 for cytotoxicity against human LX2 cells; type: functional, LX-2
[7] = Inhibition of hyaluronic acid deposition in human LX2 cells; type: functional, cell-based; details: lx-2
L1210 = test: Growth inhibition of mouse L1210 cells incubated for 24 to 48 hrs by trypan blue exclusion assay; type: functional, cell-based
[8] = Inhibition of collagen type 1 deposition in human LX2 cells incubated for 72 hrs by ELISA; type: functional, cell-based; details: lx-2
LS174T = test: Growth inhibition of human LS174T cells incubated for 72 hrs by methylene blue staining based assay; type: functional, cell-based
CCRF-CEM = test: Growth inhibition of human CCRF-CEM cells incubated for 24 to 48 hrs by trypan blue exclusion assay; type: functional, cell-based
KB = test: Growth inhibition of human KB cells incubated for 72 hrs by methylene blue staining based assay; type: functional, cell-based
[9] = Inhibition of laminin deposition in human LX2 cells incubated for 72 hrs by ELISA; type: functional, cell-based; details: lx-2
[10] = Cytotoxicity against human LX2 cells assessed as reduction in cell viability incubated for 48 hrs by MTT assay; type: functional, cell-based; details: LX-2, 48 h
MCF7 = test: Growth inhibition of human MCF7 cells incubated for 72 hrs by methylene blue staining based assay; type: functional, cell-based; details: MCF7, 72 h
[11] = Inhibition of hyaluronic acid deposition in human LX2 cells incubated for 72 hrs by ELISA; type: functional, cell-based; details: lx-2

## CC1=CC[C@@H](O)[C@]2(C)CC[C@@H]3[C@H](OC(=O)[C@H]3CN(C)C)[C@@H]12
LX-2
  Activity: inactive

## C=C1C(=O)O[C@@H]2[C@H]3C(C)=CC[C@@H](OC(=O)c4ccc(C(=O)O[C@@H]5CC=C(C)[C@@H]6[C@H]7OC(=O)C(=C)[C@@H]7CC[C@]65C)cc4)[C@]3(C)CC[C@@H]12
[1]
  IC50: 9 µM

## C=C1C(=O)O[C@@H]2[C@H]3C(C)=CC[C@@H](OC(=O)/C=C/c4ccccc4C(F)(F)F)[C@]3(C)CC[C@@H]12
[1]
  IC50: 16.5 µM

## C=C1C(=O)O[C@@H]2[C@H]3C(C)=CC[C@@H](OC(=O)c4ccc(-n5cc(C)ccc5=O)cc4)[C@]3(C)CC[C@@H]12
[1]
  IC50: 55.9 µM

## C=C1C(=O)O[C@@H]2[C@H]3C(C)=CC[C@@H](OC(=O)c4ccccc4)[C@]3(C)CC[C@@H]12
[1]
  IC50: 16.9 µM

## C=C1C(=O)O[C@@H]2[C@H]3C(C)=CC[C@@H](OC(=O)/C=C/c4c(F)c(F)c(F)c(F)c4F)[C@]3(C)CC[C@@H]12
[2]
  IC50: 6.1 µM
[3]
  Ratio IC50: 6
[4]
  IC50: 3.3 µM
[5]
  Ratio IC50: 8
[1]
  IC50: 4.6 µM
[6]
  Ratio IC50: 4
[7]
  IC50: 7.6 µM

## C=C1C(=O)O[C@@H]2[C@H]3C(C)=CC[C@@H](OC(=O)/C=C/c4cccc(C(F)(F)F)c4)[C@]3(C)CC[C@@H]12
[2]
  IC50: 14.7 µM
[3]
  Ratio IC50: 3
[4]
  IC50: 7.3 µM
[5]
  Ratio IC50: 3
[1]
  IC50: 6.4 µM
[6]
  Ratio IC50: 3
[7]
  IC50: 21.2 µM

## C=C1C(=O)O[C@@H]2[C@H]3C(C)=CC[C@@H](OC(=O)CCC(=O)O)[C@]3(C)CC[C@@H]12
[1]
  IC50: 92 µM

## C=C1C(=O)O[C@@H]2[C@H]3C(C)=CC[C@@H](OC(=O)/C=C/c4ccccc4)[C@]3(C)CC[C@@H]12
[1]
  IC50: 17.6 µM

## C=C1C(=O)O[C@@H]2[C@H]3C(C)=CC[C@@H](OC(=O)CCCCCCC)[C@]3(C)CC[C@@H]12
[1]
  IC50: 32.4 µM

## C=C1C(=O)O[C@@H]2[C@H]3C(C)=CC[C@@H](OC(=O)/C=C/c4ccc(C=O)cc4)[C@]3(C)CC[C@@H]12
[1]
  IC50: 45.5 µM

## C=C1C(=O)O[C@@H]2[C@H]3C(C)=CC[C@@H](OC(=O)C4CCCC4)[C@]3(C)CC[C@@H]12
[1]
  IC50: 11.9 µM

## C=C1C(=O)O[C@@H]2[C@H]3C(C)=CC[C@@H](OC(=O)CCCC(=O)O[C@@H]4CC=C(C)[C@@H]5[C@H]6OC(=O)C(=C)[C@@H]6CC[C@]54C)[C@]3(C)CC[C@@H]12
[1]
  IC50: 11.1 µM

## C=C1C(=O)O[C@@H]2[C@H]3C(C)=CC[C@@H](OC(=O)c4cccc(C(F)(F)F)c4)[C@]3(C)CC[C@@H]12
[1]
  IC50: 11.5 µM

## C=C1C(=O)O[C@@H]2[C@H]3C(C)=CCC(=O)[C@]3(C)CC[C@@H]12
[1]
  IC50: 44.4 µM

## C=C1C(=O)O[C@@H]2[C@H]3C(C)=CC[C@@H](O)[C@]3(C)CC[C@@H]12 [SANTAMARIN]
L1210
  IC50: 0.16 µg/mL (≈ 0.644 µM)
[8]
  IC50: 7.3 µM
LS174T
  IC50: 0.16 µg/mL (≈ 0.644 µM)
CCRF-CEM
  IC50: 0.16 µg/mL (≈ 0.644 µM)
KB
  IC50: 0.16 µg/mL (≈ 0.644 µM)
[9]
  IC50: 18.6 µM
[10]
  IC50: 16.5 µM
MCF7
  IC50: 0.16 µg/mL (≈ 0.644 µM)
[11]
  IC50: > 60 µM

## C=C1C(=O)O[C@@H]2[C@H]3C(C)=CC[C@@H](OC(=O)/C=C/c4ccc(C(F)(F)F)cc4)[C@]3(C)CC[C@@H]12
[1]
  IC50: 16.3 µM

## C=C1C(=O)O[C@@H]2[C@H]3C(C)=CC[C@@H](OC(=O)CCC(=O)Oc4ccc(-n5cc(C)ccc5=O)cc4)[C@]3(C)CC[C@@H]12
[1]
  IC50: 55.9 µM

## COc1cc([C@H]2Oc3cc([C@H]4Oc5cc(O)cc(O)c5C(=O)[C@@H]4O)ccc3O[C@@H]2CO)ccc1O [SILYBIN A]
[2]
  IC50: 51.5 µM
[4]
  IC50: 83.7 µM
[1]
  IC50: 151 µM
[7]
  IC50: 164 µM

## C=C1C(=O)O[C@@H]2[C@H]3C(C)=CC[C@@H](OC(=O)c4cccnc4)[C@]3(C)CC[C@@H]12
[1]
  IC50: 27.6 µM

## C=C1C(=O)O[C@@H]2[C@H]3C(C)=CC[C@@H](OC(=O)/C=C/c4ccncc4)[C@]3(C)CC[C@@H]12
[1]
  IC50: 16.1 µM

## C=C1C(=O)O[C@@H]2[C@H]3C(C)=CC[C@@H](OC(C)=O)[C@]3(C)CC[C@@H]12
[1]
  IC50: 12.3 µM

## C=C1C(=O)O[C@@H]2[C@H]3C(C)=CC[C@@H](OC(=O)/C=C/c4ccc(F)cc4)[C@]3(C)CC[C@@H]12
[1]
  IC50: 21 µM

## C=C1C(=O)O[C@@H]2[C@H]3C(C)=CC[C@@H](OC(=O)CCC(=O)O[C@@H]4CC=C(C)[C@@H]5[C@H]6OC(=O)C(=C)[C@@H]6CC[C@]54C)[C@]3(C)CC[C@@H]12
[2]
  IC50: 16.2 µM
[3]
  Ratio IC50: 3
[4]
  IC50: 6.6 µM
[5]
  Ratio IC50: 3
[1]
  IC50: 3.5 µM
[6]
  Ratio IC50: 5
[7]
  IC50: 17.9 µM

## C=C1C(=O)O[C@@H]2[C@@H]3[C@@](C)(CC[C@@H]12)[C@H](O)C[C@H]1O[C@@]31C
[1]
  IC50: 47.4 µM

## C=C1[C@H](O)C[C@@H](O)[C@]2(C)CC[C@H]3C(=C)C(=O)O[C@@H]3[C@@H]12
[1]
  IC50: 43.3 µM

## C=C1C(=O)O[C@@H]2[C@H]3C(C)=CC[C@@H](OC(=O)c4cccs4)[C@]3(C)CC[C@@H]12
[1]
  IC50: 31.3 µM

## C=C1C(=O)O[C@@H]2[C@H]3C(C)=CC[C@@H](OC(=O)/C=C/c4ccc(OC(C)=O)cc4)[C@]3(C)CC[C@@H]12
[1]
  IC50: 21.5 µM
